Laboratory results reported in US7851473B2, “Amide compound” (Takeda Pharmaceutical Company Limited, priority 2004, dated 2010).

System: rat local cerebral ischemic model
Experiment: Cerebroprotective effect in a rat cerebral ischemic model (middle cerebral artery occlusion)
Assay type: in vivo
Conditions: SD rats, 120 minutes occlusion; intravenous, immediately after reperfusion and after 2, 4 and 6 hours; measured two days after ischemia; p<0.05
Method: The compound obtained in Example 1 as an FAAH inhibitory agent (hereinafter, referred to as Compound A) was administered intravenously to a rat local cerebral ischemic model, and the inhibitory effect of the compound on cerebral infarct volume was examined. For the cerebral ischemic model, 8 weeks-old male SD rats (CLEA Japan, Inc.) were used to generate a middle cerebral artery occlusion model (Kiyota, et al., Experimental Brain Research, 95, 388-396 (1993)). That is, under halothane anesthesia, a silicone-coated plug was inserted into the rat from the right common carotid artery to the origin of middle cerebral artery to induce occlusion for 120 minutes. Compound A of Example was intravenously administered immediately after reperfusion and after 2, 4 and 6 hours, respectively. Two days after the ischemia treatment, the rat brain was extracted, 2 mm-thick slices of anterior maxillary section were prepared therefrom, and the cerebral infarct volume was measured from their TTC-stained images by image analysis.

**Q.** `O=C(Nc1noc2ccccc12)N1CCN(c2nc(-c3ccccc3)ns2)CC1` [Compound A] was tested. Which “cerebral infarct volume compared with the solvent-administered group” value did it give?
**A.** significantly smaller
